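Following 48 hours of exposure in 96-well plates, responses at five concentrations were used to interpolate endpoints linearly. Abbreviation: GI50, concentration required for 50% inhibition of growth.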 The source made the active and inactive calls. Cut-off read from the data, not from the text of the source: active = GI50 up to about 1.1 µM and inactive = higher.
Legend:
Experiment in all cases: DTP human tumour cell line panel, 48 h
MDA-MB-231 = system: MDA-MB-231
OVCAR-5 = system: OVCAR-5
T47D = system: T47D
OVCAR-8 = system: OVCAR-8
Malme-3M = system: Malme-3M
A498 = system: A498
U-251 = system: U-251
CCRF-CEM = system: CCRF-CEM
MOLT-4 = system: MOLT-4
RPMI-8226 = system: RPMI-8226
COLO 205 = system: COLO 205
SF-268 = system: SF-268
SR = system: SR
Hs-578T = system: Hs-578T
A549 = system: A549
HCC 2998 = system: HCC 2998
NCI-H522 = system: NCI-H522
MCF7 = system: MCF7
SN12C = system: SN12C
PC-3 = system: PC-3
OVCAR-3 = system: OVCAR-3
EKVX = system: EKVX
SK-MEL-28 = system: SK-MEL-28
UACC-62 = system: UACC-62
SK-MEL-5 = system: SK-MEL-5
SF-295 = system: SF-295
SNB-19 = system: SNB-19
MDA-MB-435 = system: MDA-MB-435
NCI-H23 = system: NCI-H23
NCI/ADR-RES = system: NCI/ADR-RES
CAKI-1 = system: CAKI-1
K562 = system: K562
HOP-92 = system: HOP-92
SK-OV-3 = system: SK-OV-3
NCI-H460 = system: NCI-H460
BT-549 = system: BT-549
TK-10 = system: TK-10
HCT-116 = system: HCT-116
OVCAR-4 = system: OVCAR-4
SNB-75 = system: SNB-75
SW-620 = system: SW-620
HOP-62 = system: HOP-62
M14 = system: M14
KM12 = system: KM12
HCT-15 = system: HCT-15
LOX IMVI = system: LOX IMVI
SK-MEL-2 = system: SK-MEL-2
UO-31 = system: UO-31
SF-539 = system: SF-539
DU-145 = system: DU-145
NCI-H226 = system: NCI-H226
MDA-N = system: MDA-N
HL-60 = system: HL-60
RXF 393 = system: RXF 393
ACHN = system: ACHN
HT-29 = system: HT-29
IGROV-1 = system: IGROV-1
786-0 = system: 786-0
UACC-257 = system: UACC-257

With `CC1OC(OC2C(O[C@H]3CC[C@@]4(C)C(=CC[C@H]5[C@@H]6C[C@@H]7O[C@]8(CC[C@@H](C)CO8)[C@@H](C)[C@@H]7[C@@]6(C)CC[C@@H]54)C3)OC(CO)C(OC3OC(CO)C(O)C3O)C2O)C(O)C(O)C1O` (stereo partly drawn) the GI50 (MDA-MB-231) was 0.8 µM (active), the GI50 (OVCAR-5) was 0.8 µM (active) and the GI50 (T47D) was 1.12 µM (active). For the same molecule, the GI50 (OVCAR-8) was 0.535 µM (active), the GI50 (Malme-3M) was 0.877 µM (active) and the GI50 (A498) was 0.881 µM (active). The GI50 (U-251) was 0.619 µM (active), the GI50 (CCRF-CEM) was 0.16 µM (active) and the GI50 (MOLT-4) was 0.785 µM (active). The GI50 (RPMI-8226) was 0.724 µM (active), the GI50 (COLO 205) was 0.6 µM (active) and the GI50 (SF-268) was 0.841 µM (active). The GI50 (SR) was 0.695 µM (active), the GI50 (Hs-578T) was 0.805 µM (active) and the GI50 (A549) was 0.634 µM (active). For the same molecule, the GI50 (HCC 2998) was 0.366 µM (active), the GI50 (NCI-H522) was 0.995 µM (active) and the GI50 (MCF7) was 0.774 µM (active). For the same molecule, the GI50 (SN12C) was 0.571 µM (active), the GI50 (PC-3) was 0.776 µM (active) and the GI50 (OVCAR-3) was 0.918 µM (active). For the same molecule, the GI50 (EKVX) was 0.885 µM (active), the GI50 (SK-MEL-28) was 0.605 µM (active) and the GI50 (UACC-62) was 0.805 µM (active). For the same molecule, the GI50 (SK-MEL-5) was 0.746 µM (active), the GI50 (SF-295) was 0.745 µM (active) and the GI50 (SNB-19) was 0.762 µM (active). For the same molecule, the GI50 (MDA-MB-435) was 0.869 µM (active), the GI50 (NCI-H23) was 0.836 µM (active) and the GI50 (NCI/ADR-RES) was 0.91 µM (active). The GI50 (CAKI-1) was 0.867 µM (active), the GI50 (K562) was 1.23 µM (inactive) and the GI50 (HOP-92) was 1.01 µM (active). For the same molecule, the GI50 (SK-OV-3) was 0.94 µM (active), the GI50 (NCI-H460) was 0.438 µM (active) and the GI50 (BT-549) was 0.975 µM (active). For the same molecule, the GI50 (TK-10) was 0.989 µM (active), the GI50 (HCT-116) was 0.851 µM (active) and the GI50 (OVCAR-4) was 0.931 µM (active). The GI50 (SNB-75) was 0.724 µM (active), the GI50 (SW-620) was 0.766 µM (active) and the GI50 (HOP-62) was 0.897 µM (active). The GI50 (M14) was 0.745 µM (active), the GI50 (KM12) was 0.912 µM (active) and the GI50 (HCT-15) was 0.895 µM. The GI50 (LOX IMVI) was 0.521 µM (active), the GI50 (SK-MEL-2) was 1.01 µM (active) and the GI50 (UO-31) was 0.798 µM (active). For the same molecule, the GI50 (SF-539) was 0.644 µM (active), the GI50 (DU-145) was 0.984 µM (active) and the GI50 (NCI-H226) was 0.867 µM (active). For the same molecule, the GI50 (MDA-N) was 0.752 µM (active), the GI50 (HL-60) was 0.964 µM (active) and the GI50 (RXF 393) was 0.865 µM (active). The GI50 (ACHN) was 0.855 µM (active), the GI50 (HT-29) was 0.805 µM (active) and the GI50 (IGROV-1) was 0.847 µM (active). For the same molecule, the GI50 (786-0) was 0.673 µM (active) and the GI50 (UACC-257) was 0.908 µM (active).

`c1ccc2c(c1)c1c3c(c4c(n32)=NCCN4)CCC1` was tested, and the GI50 (MDA-MB-231) was 24.2 µM (inactive), the GI50 (OVCAR-5) was 36.3 µM (inactive) and the GI50 (T47D) was 20.7 µM (inactive). For the same molecule, the GI50 (OVCAR-8) was 39.6 µM (inactive), the GI50 (Malme-3M) was 31.6 µM (inactive) and the GI50 (A498) was 28 µM (inactive). The GI50 (U-251) was 33.8 µM (inactive), the GI50 (CCRF-CEM) was 53.1 µM (inactive) and the GI50 (MOLT-4) was 21.3 µM (inactive). For the same molecule, the GI50 (RPMI-8226) was 24.3 µM (inactive), the GI50 (COLO 205) was 28.1 µM (inactive) and the GI50 (SF-268) was 31.6 µM (inactive). For the same molecule, the GI50 (SR) was 17.4 µM (inactive), the GI50 (Hs-578T) was 26.5 µM (inactive) and the GI50 (A549) was 48.5 µM (inactive). The GI50 (HCC 2998) was 33.6 µM (inactive), the GI50 (NCI-H522) was 20.7 µM (inactive) and the GI50 (MCF7) was 24.8 µM (inactive). The GI50 (SN12C) was 18.5 µM (inactive), the GI50 (PC-3) was 26.6 µM (inactive) and the GI50 (OVCAR-3) was 34.8 µM (inactive). The GI50 (EKVX) was 20.9 µM (inactive), the GI50 (SK-MEL-28) was 55.3 µM (inactive) and the GI50 (UACC-62) was 30.1 µM (inactive). For the same molecule, the GI50 (SK-MEL-5) was 32.4 µM (inactive), the GI50 (SF-295) was 26.9 µM (inactive) and the GI50 (SNB-19) was 89.9 µM (inactive). The GI50 (MDA-MB-435) was 29.7 µM (inactive), the GI50 (NCI-H23) was 31.6 µM (inactive) and the GI50 (NCI/ADR-RES) was 27.9 µM (inactive). The GI50 (CAKI-1) was 40.8 µM (inactive), the GI50 (K562) was 27.6 µM (inactive) and the GI50 (HOP-92) was 25.6 µM (inactive). The GI50 (SK-OV-3) was 37.1 µM (inactive), the GI50 (NCI-H460) was 34.7 µM (inactive) and the GI50 (BT-549) was 32.1 µM (inactive). For the same molecule, the GI50 (TK-10) was 59.7 µM (inactive), the GI50 (HCT-116) was 30.5 µM (inactive) and the GI50 (OVCAR-4) was 42.5 µM (inactive). For the same molecule, the GI50 (SNB-75) was 21.7 µM (inactive), the GI50 (SW-620) was 28.5 µM (inactive) and the GI50 (HOP-62) was 36.1 µM (inactive). For the same molecule, the GI50 (M14) was 44.3 µM (inactive), the GI50 (KM12) was 27 µM (inactive) and the GI50 (HCT-15) was 15.2 µM. The GI50 (LOX IMVI) was 21.1 µM (inactive), the GI50 (SK-MEL-2) was 23.3 µM (inactive) and the GI50 (UO-31) was 45.2 µM (inactive). For the same molecule, the GI50 (SF-539) was 46.1 µM (inactive), the GI50 (DU-145) was 55.3 µM (inactive) and the GI50 (NCI-H226) was 19.2 µM (inactive). For the same molecule, the GI50 (MDA-N) was 20.7 µM (inactive), the GI50 (HL-60) was 44.4 µM (inactive) and the GI50 (RXF 393) was 17.9 µM (inactive). The GI50 (ACHN) was 40.9 µM (inactive), the GI50 (HT-29) was 20.8 µM (inactive) and the GI50 (IGROV-1) was 27.4 µM (inactive). The GI50 (786-0) was 28.1 µM (inactive) and the GI50 (UACC-257) was 38.1 µM (inactive).

— ChEMBL document CHEMBL1201862, “PubChem BioAssay data set” (2004)
